# Data published in paper PMC9024523, “Phenoxyaromatic Acid Analogues as Novel Radiotherapy Sensitizers: Design, Synthesis and Biological Evaluation” (Molecules, 2022).
# pIC50: −log10 of the molar value. “And” between values parts separate entries of the source, which are not always exact repeats. Equal values may be shown once. “Also recorded” adds a separate entry of the source.
# Assays:
# mouse red blood cells = assay: In vitro red blood cell-based assay (oxygen equilibrium curve, Softron analyzer); conditions: final effector concentration 2 mM, mean ± SD; for P50/P50C: P50C = control with 1% DMSO; for P50: 1% DMSO; for P50 / ∆P50: mouse red blood cells; for ∆P50: ∆P50 = P50 − P50C
# Text: In the first stage of our research, three series of analogues were designed and synthesized to explore refinement of the hydrophobic parts of 19f, 19m, 24a and 24b; hinge areas of 18g, 19b and 19y; and tail regions of 15c, 15d and 16c, respectively. We used the Softron Analyzer to evaluate the effect of these compounds on the half-blood oxygen saturation(P50) value of red blood cells. The most promising phenoxyaromatic acid compound, efaproxiral, was used as a positive control. […] The results reminded us that the modification of the hydrophobic part or linker extension is beneficial to improve an allosteric effect.
# Eight-week-old female C57BL6J mice were purchased from Beijing Vital River Laboratory Animal Technology Co., Ltd. A total of 540 μL mouse blood was added into the 1.5 mL centrifuge tube, followed by adding 60 μL 3.8% sodium citrate. The mixture was then centrifuged at 1500 rpm for 10 min, the supernatant was carefully aspirated, and the cells were washed three times with PBS solution. After mixing packed red blood cells with Alsever’s solution in a ratio of 1:1, a blood gas analyzer (RADIOMETER ABL 90) was used to analyze the red blood cell density and hemoglobin concentration.
# All of the compounds were prepared as 200 mM stock solutions in DMSO. Oxygen equilibrium measurements were performed with the Softron analyzer (Softron Medical Products, Beijing, China) using mouse red blood cells. The samples were prepared by adding 3 mg hemoglobin equivalent of red blood cells into 3.92 mL loading buffer (100 mM NaCl, 50 mM bis-Tris at pH 7.2 and 25 °C), followed by 20 μL 10% Dimethicone as a defoamer and 20 μL 20% BSA. Afterwards, 40 μL stock solution was added, and the mixture was loaded to the sample cell and fully deoxygenated by blowing into nitrogen at 37 °C for 15 min. Then, the oxygen equilibrium curve was recorded by blowing into oxygen.
# [1] = tested on: luciferase-labeled U87MG implanted into Balb/c nude mice brains; assay: In vivo radiosensitization on orthotopically transplanted GB; set-up: species or system mouse; conditions: 150 mg/kg ip combined with IR
# Protocol: In order to evaluate in vivo antitumor effects, luciferase-labeled U87MG was implanted into Balb/c nude mice brains. A small animal bioluminescence imaging system was applied to trace the tumor formation and dynamic changes in GB size. Cobalt 60 was used for fractionated-dose whole-brain irradiation therapy (IR). The tumor was irradiated with a total dose of 12 Gy in four fractions of 3 Gy at a dose rate of 0.3 Gy/min. Efaproxiral or 19c was administrated at a dosage of 150 mg/kg by intraperitoneal injection (ip) every four days over a period of sixteen days. IR was conducted 15 min after ip.
# Four-week-old female BALB/c nude mice were purchased from Beijing Vital River Laboratory Animal Technology Co., Ltd. Animals were monitored daily by certified veterinary staff and laboratory personnel. All mice used in this study were maintained in a pathogen-free barrier animal facility. The study was in compliance with all relevant ethical regulations regarding animal research. All animal experiments were approved by the Institutional Animal Care and Use Committee at the Beijing Institute of Basic Medical Sciences. The U87-luc cells were processed and resuspended into basal medium at a concentration of 10^7 cells/mL. Next, 8 × 10^5 U87-luc glioma cells were implanted into the right frontal lobes of each nude mouse. Ten days after tumor implantation, tumor-bearing mice were randomly divided into six groups according to the tumor size and subjected to the indicated treatment (n = 6). Administration of drugs (150mg/kg) or vehicle was performed once every 4 days four consecutive times by intraperitoneal injection. All radiation treatments were performed 25 min after the drug or vehicle was given. Tumors on the brains of mice were irradiated at a dosage of 3 Gy four consecutive times using a ^60Co γ irradiator. The dose rate was 0.3 Gy/min. The bodies of the mice were shielded using lead blocks. The tumor progress was tracked by a small animal live bioluminescence imaging system (LB983NC100U, Germany).
# U87MG cells = assay: Cell Titer-Glo cytotoxicity assay, U87MG; type: cell-based, human
# Protocol: (§1) For further in vivo evaluation of newly synthesized compounds, 19c and 19t were selected as candidates. Hemoglobin allosteric effectors require a relatively high blood concentration to be effective. Cytotoxicity evaluation was conducted out of consideration for medication safety. HEK293 and U87MG cells were used to evaluate the cytotoxicity.
# (§2) Luciferase-transfected human glioma cells (U87-luc) and HEK293 cells were kindly provided by Dr. Nie and cultured in Dulbecco’s Modified Eagle Medium (CM10013, MacGene) with 10% fetal bovine serum (1966173C, Gibco) and 1% penicillin-streptomycin in a humidified atmosphere of 5% CO2 at 37 °C.
# (§3) Cells were plated in a 96-well plate at a density of 2000 cells/well and then treated with 19c or 19t at gradient concentrations of 10^1, 10^2, 10^3, 10^4, 10^5, 10^6and 10^7 nM. Compounds 19c and 19t were prepared as the sodium salt by adding saturated sodium bicarbonate in the process of stock solution preparation. Cell viability was evaluated on the indicated days after treatment with a Cell Titer-Glo Luminescent Cell Viability Assay kit (G7572, Promega, Madison, WI, USA) according to the manufacturer’s instructions. All data were normalized to those on day 0 and presented as the mean ± standard deviation (SD).
# HEK293 cells = assay: Cell Titer-Glo cytotoxicity assay, HEK293; type: cell-based
# Protocol: as §1, §2, §3
Compound,P50/P50C (mouse red blood cells),P50 (mouse red blood cells),∆P50 (mouse red blood cells),other results
"CCN(CC)c1ccc(NC(=O)Cc2ccc(OC(C)(C)C(=O)O)cc2)cc1 [19r, 2-(4-(2-((4-(diethylamino)phenyl)amino)-2-oxoethyl)phenoxy)-2-methylpropanoic acid]",1.57 ± 0.02,65.81 ± 6.64 mmHg,23.97 ± 1.82 mmHg,–
"COc1ccc(NC(=O)Cc2ccc(OC(C)(C)C(=O)O)cc2)cc1 [19s, 2-(4-(2-((4-methoxyphenyl)amino)-2-oxoethyl)phenoxy)-2-methylpropanoic acid]",1.45 ± 0.01,71.87 ± 0.64 mmHg,22.29 ± 0.64 mmHg,–
"CC(C)(Oc1ccc(/C=C/C(=O)Nc2cc(Cl)cc(Br)c2)cc1)C(=O)O [19w, (E)-2-(4-(3-((3-bromo-5-chlorophenyl)amino)-3-oxoprop-1-en-1-yl)phenoxy)-2-methylpropanoic acid]",1.50 ± 0.08,56.76 ± 2.93 mmHg,18.85 ± 2.93 mmHg,–
"C=CCN(CC=C)C(=O)Cc1ccc(OC(C)(C)C(=O)O)cc1 [24a, 2-(4-(2-(diallylamino)-2-oxoethyl)phenoxy)-2-methylpropanoic acid]",1.25 ± 0.21,55.80 ± 18.99 mmHg,11.80 ± 11.11 mmHg,–
"CC1Cc2ccccc2N1C(=O)Cc1ccc(OC(C)(C)C(=O)O)cc1 (centres unmarked) [24b, 2-methyl-2-(4-(2-(2-methylindolin-1-yl)-2-oxoethyl)phenoxy)propanoic acid]",1.46 ± 0.12,66.26 ± 5.30 mmHg,21.02 ± 5.30 mmHg,–
"CC(C)(Oc1ccc(CC(=O)Nc2ccc3c(c2)OCO3)cc1)C(=O)O [24c, 2-(4-(2-(benzo[d][1,3]dioxol-5-ylamino)-2-oxoethyl)phenoxy)-2-methylpropanoic acid]",1.58 ± 0.01,69.62 ± 12.16 mmHg,25.61 ± 4.27 mmHg,–
"CC(C)(Oc1ccc(CC(=O)Nc2ccc3ccccc3c2)cc1)C(=O)O [24d, 2-methyl-2-(4-(2-(naphthalen-2-ylamino)-2-oxoethyl)phenoxy)propanoic acid]",1.93 ± 0.01,79.50 ± 0.47 mmHg,38.31 mmHg and 38.31 ± 0.47 mmHg,–
"CC(C)(Oc1ccc(CC(=O)NC(c2ccccc2)c2ccccc2)cc1)C(=O)O [24e, 2-(4-(2-(benzhydrylamino)-2-oxoethyl)phenoxy)-2-methylpropanoic acid]",1.33 ± 0.24,59.61 ± 20.96 mmHg,15.61 ± 13.07 mmHg,–
"CC(C)(Oc1ccc(CC(=O)N(Cc2ccccc2)Cc2ccccc2)cc1)C(=O)O [24f, 2-(4-(2-(dibenzylamino)-2-oxoethyl)phenoxy)-2-methylpropanoic acid]",1.23 ± 0.12,54.51 ± 14.91 mmHg,10.51 ± 7.02 mmHg,–
"CCCCCCNC(=O)Cc1ccc(OC(C)(C)C(=O)O)cc1 [24g, 2-(4-(2-(hexylamino)-2-oxoethyl)phenoxy)-2-methylpropanoic acid]",1.10 ± 0.04,46.17 ± 7.11 mmHg,4.34 ± 2.30 mmHg,–
"CNC(=O)Cc1ccc(OC(C)(C)C(=O)O)cc1 [24h, 2-methyl-2-(4-(2-(methylamino)-2-oxoethyl)phenoxy)propanoic acid]",1.40 ± 0.11,58.11 ± 1.93 mmHg,16.27 ± 2.88 mmHg,–
"Cc1cc(C)cc(NC(=O)Cc2ccc(OC(C)(C)C(=O)O)cc2)c1 [Efaproxiral, 2-(4-(2-((3,5-dimethylphenyl)amino)-2-oxoethyl)phenoxy)-2-methylpropanoic acid, reference compound]",1.79 ± 0.02,82.50 ± 1.01 mmHg,36.40 mmHg,∆P50 (mouse red blood cells; listed as Efaproxiral ( 19a )): 36.40 ± 1.01 mmHg; overall survival time of tumor-bearing mice compared to vehicle control [1]: could improve the overall survival time
(E)-2-(4-(3-((3-iodophenyl)amino)-3-oxoprop-1-en-1-yl)phenoxy)-2-methylpropanoic acid [19v],1.71 ± 0.05,77.49 ± 2.11 mmHg,32.25 ± 2.11 mmHg,K (Hill coefficient of the oxygen dissociation curve at 50% saturation) (mouse red blood cells): 2.23 ± 0.28
(E)-2-(4-(3-((4-bromophenyl)amino)-3-oxoprop-1-en-1-yl)phenoxy)-2-methylpropanoic acid [19u],1.67 ± 0.09,63.15 ± 3.48 mmHg,25.24 ± 3.48 mmHg,K (Hill coefficient of the oxygen dissociation curve at 50% saturation) (mouse red blood cells): 1.96 ± 0.17
(E)-2-methyl-2-(4-(3-((3-(methylthio)phenyl)amino)-3-oxoprop-1-en-1- yl)phenoxy) propanoic acid [19t],2.13 ± 0.07,89.62 ± 2.02 mmHg,44.38 mmHg and 44.38 ± 2.02 mmHg,"K (Hill coefficient of the oxygen dissociation curve at 50% saturation) (mouse red blood cells): 2.43 ± 0.16; cytotoxicity (summary statement) (U87MG cells; U87MG (glioma) cells): cytotoxic toward both cells with no selectivity; also recorded: cytotoxic to both normal and glioma cells at low micromolar levels without selectivity; cytotoxicity (U87MG cells; U87MG cells, concentration of 10 μm): showed cytotoxicity; pIC50 (U87MG cells; U87MG cells, sodium salt stock): 3.74; cytotoxicity (summary statement) (HEK293 cells; HEK293 (normal) cells): cytotoxic toward both cells with no selectivity; also recorded: cytotoxic to both normal and glioma cells at low micromolar levels without selectivity; cytotoxicity (HEK293 cells; HEK293 cells, concentration of 10 μm): showed cytotoxicity; TC50 (HEK293 cells; HEK293 cells, sodium salt stock): 165 µM"
